# Residues, ends and D or L forms follow the SMILES beside them.
# Key:
# Human red blood cells = assay: Ex vivo hemolysis assay (RBC lysis assay); format: cell-based; details: peptide 200 µM, 1 h; for percent hemolysis: ≈0.8% v/v human RBC suspension in 0.9% normal saline, room temperature, absorbance 415 nm, relative to 1% Triton X‐100, blood of three healthy individuals, mean ± SD
# Description: The hemolysis assay was as described previously.^[ [30] ^] After informed consent, peripheral blood (3 mL) was collected from three healthy individuals into heparin tubes (BD Biosciences, NJ, USA). The specimen was centrifuged at 2000 × g for 5 min at room temperature, and the plasma was discarded. The RBCs were washed twice with PBS and then resuspended in 0.9% normal saline solution at a volume equivalent to that of the original plasma. Approximately 0.8% v/v RBC suspension was incubated with the peptides at 200 µM (100 µL final volume) in a U‐bottom 96‐well plate at room temperature for 1 h with agitation. 1% v/v Triton X‐100 was applied as a positive control. The untreated condition served as the blank control. After 1 h incubation, the supernatants were collected by centrifuging at 2000 × g for 5 min at room temperature. The absorbance of hemoglobin in the supernatant was measured at 415 nm. The hemolysis percentage was calculated as follows: (2) % Hemolysis = [sample absorbance−blank control/positive control−blank control] × 100
# K562 leukemia cells = assay: In vitro cancer cytotoxicity (MTT assay); format: cell-based, human; details: K562, peptide 200 µM, 24 h
# Description: (§1) All cell lines were obtained from the American Type Culture Collection (ATCC, Manassas, VA, USA). The A549 lung adenocarcinoma (ATCC CCL‐185TM), MDA‐MB‐231 triple‐negative breast adenocarcinoma (ATCC HTB‐26TM), and SH‐SY5Y neuroblastoma (ATCC CRL‐2266TM) cell lines were cultured in Dulbecco's Modified Eagle's Medium (DMEM)‐high glucose (Gibco, Thermo Fisher Scientific, MA, USA). HT29 colon adenocarcinoma (ATCC HTB‐38) cell lines were maintained in DMEM/Nutrient Mixture F‐12 (Gibco). K562 chronic myeloid leukemia (ATCC CRL‐3344) were grown in Roswell Park Memorial Institute Medium 1640 (Gibco). The cells were cultured in medium supplemented with 10% fetal bovine serum (Gibco) and 1× penicillin/streptomycin (Gibco) and incubated in a 5% CO2 incubator with saturated humidity.
# (§2) The protocol previously described by Chiangjong et al. and Baindara et al.^[ [5], [29] ^] was modified for use in determining the cytotoxicity of peptides on the various cancer types. Adherent cells were seeded at 1 × 10^4 cells/well into a 96‐well plate 24 h prior to replacing the media containing the peptide of interest. Suspended cells were seeded at 1 × 10^4 cells/well in the media containing the peptide of interest. Five human cell lines, including lung cancer (A549), colon cancer (HT29), breast cancer (MDA‐MB‐231), neuroblastoma (SH‐SY5Y), and leukemia (K562) cells, were treated with the culture media containing the peptides at 200 µM for 24 h. Cell viability was then determined using Cell Proliferation Kit I, MTT (Roche Diagnostics GmbH, Mannheim, Germany): MTT labeling reagent (10 µL) was added to each well and incubated at 37 °C in a 5% CO2 atmosphere for 4 h. After incubation, 100 µL solubilizing solution was added to each well and incubated at 37 °C in 5% CO2 overnight. The absorbance at 570 nm (A 570) was measured for each well. The percentage of cell viability was calculated as: (1) % Cell Viability=[A570 of treated cells − A570 of media/A570 of untreated cells−A570 of media] × 100
# [1] = test system: MDA‐MB‐231 breast cancer cells; assay: In vitro cancer cytotoxicity (MTT assay); format: cell-based, human; details: MDA‐MB‐231, peptide 200 µM, 24 h
# Description: as §1, §2
# [2] = test system: SH‐SY5Y neuroblastoma cells; assay: In vitro cancer cytotoxicity (MTT assay); format: cell-based, human; details: peptide 200 µM, 24 h
# Description: as §1, §2
# [3] = test system: HT29 colon adenocarcinoma cells; assay: In vitro cancer cytotoxicity (MTT assay); format: cell-based, human; details: HT29, peptide 200 µM, 24 h
# Description: as §1, §2
# (§3) To evaluate dose‐dependency, ≈1 × 10^4 cells/well were cultured in media containing ALA‐A2 at 0, 6.25, 12.5, 25, 50, 100, 200, and 400 µM in a 96‐well plate for 24 h. Cell viability was determined by the MTT assay, as above.
# [4] = test system: A549 lung adenocarcinoma cells; assay: In vitro cancer cytotoxicity (MTT assay); format: cell-based, human; details: A549, peptide 200 µM, 24 h
# Description: as §1, §2, §3
# A549 lung cancer cells = assay: Confocal microscopy: cell internalization and membrane integrity (PI); format: cell-based, human; details: A549, peptide 200 µM 24 h, Triton X‐100 0.5% v/v 10 min, PI staining
# Description: All cells were then incubated with PI (1:2000) and Hoechst 33342 (1:5000) in the culture medium at 37 °C in 5% CO2 for 15 min. The cells were washed with PBS twice before being fixed with 4% paraformaldehyde (PFA) in PBS. The fixed cells were washed twice with PBS and mounted in 20% glycerol in PBS. […] Thereafter, the cells were stained with PI for 15 min at room temperature, washed with PBS, and then mounted with 20% glycerol in PBS. Internalization was visualized by confocal fluorescence microscopy (Nikon Instruments, Inc., Melville, NY, USA).
Compound,percent hemolysis (Human red blood cells),anticancer effect (in words) (K562 leukemia cells),anticancer effect (in words) [1],anticancer effect (in words) [2],anticancer effect (in words) [3],anticancer effect (in words) [4],membrane integrity / propidium iodide internalization (in words) (A549 lung cancer cells),"hemolytic effect (in words) (Human red blood cells; human RBCs, Triton X‐100 1% v/v)"
CC[C@H](C)[C@H](NC(=O)CNC(=O)[C@@H](NC(=O)[C@H](CC(C)C)NC(=O)[C@H](Cc1ccccc1)NC(=O)[C@H](CC(C)C)NC(=O)[C@@H]1CCCN1C(=O)[C@@H](NC(=O)[C@H](Cc1ccccc1)NC(=O)[C@H](Cc1ccccc1)NC(=O)[C@@H](N)CCCNC(=N)N)C(C)C)C(C)C)C(=O)N[C@@H](CC(C)C)C(=O)N[C@@H](Cc1ccccc1)C(=O)N1CCC[C@H]1C(=O)N[C@@H](C)C(=O)N[C@H](C(=O)N[C@@H](CC(C)C)C(=O)N[C@@H](C)C(=O)N[C@@H](CCCCN)C(=O)N[C@@H](CCC(N)=O)C(=O)N[C@@H](Cc1ccccc1)C(=O)N[C@H](C(=O)N[C@@H](CCCCN)C(=O)O)[C@@H](C)O)[C@@H](C)CC [ALA‐A1] (H-RFFVPLFLVGILFPAILAKQFTK-OH),5.6% ± 0.6%,did not exhibit a substantial anticancer effect,did not exhibit a substantial anticancer effect,did not exhibit a substantial anticancer effect,did not exhibit a substantial anticancer effect,did not exhibit a substantial anticancer effect,–,–
CC[C@H](C)[C@H](NC(=O)CNC(=O)[C@@H](NC(=O)[C@H](CC(C)C)NC(=O)[C@H](Cc1ccccc1)NC(=O)[C@H](CC(C)C)NC(=O)[C@@H]1CCCN1C(=O)[C@@H](NC(=O)[C@H](Cc1ccccc1)NC(=O)[C@H](Cc1ccccc1)NC(=O)[C@@H](N)CCCNC(=N)N)C(C)C)C(C)C)C(=O)N[C@@H](CC(C)C)C(=O)N[C@@H](Cc1ccccc1)C(=O)N1CCC[C@H]1C(=O)N[C@@H](C)C(=O)N[C@H](C(=O)N[C@@H](CC(C)C)C(=O)N[C@@H](C)C(=O)N[C@@H](CCCCN)C(=O)N[C@@H](CCC(N)=O)C(=O)N[C@@H](Cc1ccccc1)C(=O)N[C@H](C(=O)N[C@@H](CCCCN)C(=O)N[C@@H](CS)C(=O)O)[C@@H](C)O)[C@@H](C)CC [ALA‐A3] (H-RFFVPLFLVGILFPAILAKQFTKC-OH),1.3% ± 1.2%,did not exhibit a substantial anticancer effect,did not exhibit a substantial anticancer effect,did not exhibit a substantial anticancer effect,did not exhibit a substantial anticancer effect,did not exhibit a substantial anticancer effect,–,–
CC[C@H](C)[C@H](NC(=O)[C@H](CCC(N)=O)NC(=O)[C@H](Cc1ccccc1)NC(=O)[C@@H](N)CC(C)C)C(=O)N[C@@H](CO)C(=O)N[C@@H](CC(N)=O)C(=O)N[C@@H](CCCCN)C(=O)N[C@@H](CC(C)C)C(=O)N[C@@H](Cc1c[nH]c2ccccc12)C(=O)N[C@@H](CS)C(=O)N[C@@H](CCCCN)C(=O)N[C@@H](CO)C(=O)N[C@@H](CO)C(=O)N[C@@H](CCC(N)=O)C(=O)N[C@H](C(=O)N1CCC[C@H]1C(=O)N[C@@H](CCC(N)=O)C(=O)N[C@@H](CO)C(=O)N[C@@H](CCCNC(=N)N)C(=O)N[C@@H](CC(N)=O)C(=O)O)C(C)C [ALA‐A4] (H-LFQISNKLWCKSSQVPQSRN-OH),0.7% ± 0.6%,did not exhibit a substantial anticancer effect,did not exhibit a substantial anticancer effect,did not exhibit a substantial anticancer effect,did not exhibit a substantial anticancer effect,did not exhibit a substantial anticancer effect,–,–
"CC[C@H](C)[C@H](NC(=O)[C@H](CO)NC(=O)[C@@H]1CCCN1C(=O)[C@H](C)NC(=O)CNC(=O)[C@H](CC(C)C)NC(=O)[C@H](CCCCN)NC(=O)[C@H](CCCCN)NC(=O)[C@H](CCSC)NC(=O)[C@H](CCCNC(=N)N)NC(=O)[C@H](Cc1c[nH]c2ccccc12)NC(=O)[C@H](CCC(N)=O)NC(=O)[C@H](Cc1c[nH]c2ccccc12)NC(=O)[C@H](CCCNC(=N)N)NC(=O)[C@H](CCCNC(=N)N)NC(=O)[C@H](CS)NC(=O)[C@H](CCCCN)NC(=O)[C@@H](N)Cc1ccccc1)C(=O)N[C@H](C(=O)N[C@@H](CS)C(=O)N[C@H](C(=O)N[C@@H](CCCNC(=N)N)C(=O)O)C(C)C)[C@@H](C)O [BMP‐S6, reference compound]",–,exhibited cancer cytotoxicity,–,–,–,–,–,–
Triton X‐100 [reference compound],–,–,–,–,–,–,is internalized,completely lysed

# — article PMC10000267, “ALA‐A2 Is a Novel Anticancer Peptide Inspired by Alpha‐Lactalbumin: A Discovery from a Computational Peptide Library, In Silico Anticancer Peptide Screening and In Vitro Experimental Validation” (Global Challenges, 2023)
